{"source": "paper PMC11984407", "about": "“A natural small molecule isoginkgetin alleviates hypercholesterolemia and atherosclerosis by targeting ACLY” (Theranostics, 2025)", "biological_target": "T1, ACLY (Mus musculus, UniProt Q91V92)", "T1 sequence (Q91V92 1-1091)": "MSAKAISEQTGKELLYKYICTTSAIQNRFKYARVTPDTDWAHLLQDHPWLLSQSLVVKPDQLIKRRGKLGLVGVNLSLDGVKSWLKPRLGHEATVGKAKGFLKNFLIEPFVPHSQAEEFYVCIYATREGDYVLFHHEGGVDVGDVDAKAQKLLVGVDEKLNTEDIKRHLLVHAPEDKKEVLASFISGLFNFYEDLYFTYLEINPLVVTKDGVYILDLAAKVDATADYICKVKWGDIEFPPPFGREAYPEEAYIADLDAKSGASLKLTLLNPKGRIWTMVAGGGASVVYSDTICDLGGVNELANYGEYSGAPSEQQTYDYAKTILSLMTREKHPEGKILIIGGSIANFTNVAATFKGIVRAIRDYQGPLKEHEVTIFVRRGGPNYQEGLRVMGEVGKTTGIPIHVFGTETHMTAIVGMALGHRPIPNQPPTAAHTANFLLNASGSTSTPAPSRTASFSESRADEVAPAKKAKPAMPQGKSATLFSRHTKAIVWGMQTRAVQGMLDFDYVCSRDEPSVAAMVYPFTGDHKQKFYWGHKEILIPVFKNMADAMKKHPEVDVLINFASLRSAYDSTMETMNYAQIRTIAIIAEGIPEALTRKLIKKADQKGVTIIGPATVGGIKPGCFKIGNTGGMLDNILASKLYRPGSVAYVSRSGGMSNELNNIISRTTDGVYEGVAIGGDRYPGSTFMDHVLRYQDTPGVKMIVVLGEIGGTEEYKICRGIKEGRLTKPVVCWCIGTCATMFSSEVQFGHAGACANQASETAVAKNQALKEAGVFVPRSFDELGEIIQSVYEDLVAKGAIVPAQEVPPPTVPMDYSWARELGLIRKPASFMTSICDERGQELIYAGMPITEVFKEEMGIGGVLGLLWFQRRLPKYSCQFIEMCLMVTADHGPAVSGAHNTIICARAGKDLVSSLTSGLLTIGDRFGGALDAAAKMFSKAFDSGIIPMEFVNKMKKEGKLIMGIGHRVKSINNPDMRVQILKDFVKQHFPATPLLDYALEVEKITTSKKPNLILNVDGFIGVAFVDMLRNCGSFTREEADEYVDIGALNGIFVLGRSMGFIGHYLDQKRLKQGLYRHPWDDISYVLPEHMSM", "assay": "ACLY activity in vivo, mouse liver extracts (MDH-coupled method)", "parameters": "from tissue; host or cells: liver of Apoe-/- mice dosed with ISOGK", "settings": "male and female Apoe-/- mice, 20 mg/kg/day, 8 weeks", "method": "The activity of the ACLY enzyme was assayed utilizing malate dehydrogenase (MDH)-coupled method kits (BC4240, Solarbio, Beijing, China). In summary, liver extracts were incubated in a reaction buffer comprising 20 mM citrate, 10 mM MgCl₂, 10 mM DTT, 0.5 U/ml of malic dehydrogenase, 0.33 mM CoASH, and 0.14 mM NADH, both in the presence and absence of 5 mM ATP. The quantity of oxaloacetate produced by ACLY catalysis was determined by measuring the alteration in absorbance at 340 nm, which corresponds to the depletion of NADH during the MDH-catalyzed reaction. After accounting for background variations in absorbance in the absence of ATP, the relative ACL activities were computed by normalizing the data to the weight of the liver tissue.", "data": [{"molecule": "COc1ccc(-c2cc(=O)c3c(O)cc(O)c(-c4cc(-c5cc(=O)c6c(O)cc(O)cc6o5)ccc4OC)c3o2)cc1", "note": "[ISOGK, Isoginkgetin]", "values": [{"measurement": "ACLY enzyme activity in liver tissue", "value": "significantly inhibits ACLY activity"}]}]}
